# Measurements reported in patent publication US20090143285A1, “TARGET PROTEIN AND TARGET GENE FOR DRUG DISCOVERY AND SCREENING METHOD” (REVERSE PROTEOMICS RESEARCH INSTITUTE CO., LTD., priority 2005, published 2009).
# Numbering of substitutions follows the chain as printed. “Also recorded” adds a separate entry of the source.
# Tests used:
# FLJ25288-derived protein = target: T1, FLJ25288-derived protein (Homo sapiens, UniProt P09525, T85M); experiment: SEC/MS interaction analysis, FLJ25288-derived protein (Annexin A4); assay type: binding; details: TSKgel super SW2000 micro-LC column (1.0 mm ID×30 mm); presence vs absence of protein; data not shown
# T1 construct: His-tag (N); made in house; host or cells: Escherichia coli BL21star(DE3)pLysS
# T1 sequence (P09525 1-321 isoform P09525-3 T87M): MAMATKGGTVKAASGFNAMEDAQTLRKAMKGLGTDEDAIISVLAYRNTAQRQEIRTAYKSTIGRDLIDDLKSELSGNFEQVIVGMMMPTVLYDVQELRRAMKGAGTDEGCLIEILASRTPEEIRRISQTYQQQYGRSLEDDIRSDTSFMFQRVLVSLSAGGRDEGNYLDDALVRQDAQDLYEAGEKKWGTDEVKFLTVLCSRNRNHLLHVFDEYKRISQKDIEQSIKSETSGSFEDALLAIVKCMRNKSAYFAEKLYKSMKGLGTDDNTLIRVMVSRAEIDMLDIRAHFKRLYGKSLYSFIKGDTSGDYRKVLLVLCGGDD
# Source text: (§1) To analyze the interactions between commonly used drugs and proteins expressed from human full-length cDNA clones while keeping both the proteins and the compounds in non-modified, non-immobilized state, size exclusion chromatography (SEC) and mass analysis were used in combination. The specific procedures are shown below.
# (§2) The compound-protein mixture prepared in step 1 was subjected to chromatography using an SEC column, the compound and the protein were separated by SEC, and the compound that interacted with the bound compound or protein contained in the protein fraction was analyzed using a mass analyzer.
# (§3) Protein concentrations were measured using BCA Protein Assay (PIERCE), in consideration of the purity calculated by SDS-PAGE.
# (§4) Mass analysis was performed using LCQ DECA XP (Thermoelectron) or Q-TOF micro (Micromass), equipped with an ESI probe. […]
# (§5) In the 384-well spin column method, Unifilter 100 (Whatman), packed with 10 μL (dry volume) of Bio-Gel P6 (BIO-RAD) and swollen with milliQ water, was used as the SEC column. […] 2-μL of mass analysis samples were injected using an autosampler at 2-minute intervals; the mass spectral intensity of the compound was measured to retrieve the spectral intensity of the pharmaceutical compound contained in the SEC spin column filtrate (protein fraction eluted from SEC).
# [1] = tested on: FLJXXXXX-derived proteins; experiment: SEC/MS spin column interaction analysis of FLJXXXXX-derived proteins and various compounds (Tables 30-1 to 30-4); assay type: binding, human; details: SEC spin column filtrate, spectral intensity increased with doses of compound and protein
# FLJ38897-derived protein = target: T2, FLJ38897-derived protein (Homo sapiens, UniProt P57764); experiment: SEC/MS interaction analysis, FLJ38897-derived protein (GSDMDC1); assay type: binding; details: spin column method; mixture with protein vs buffer solution alone; data not shown
# T2 construct: His-tag (N); made in house; host or cells: Escherichia coli BL21star(DE3)pLysS
# T2 sequence (P57764 265-484): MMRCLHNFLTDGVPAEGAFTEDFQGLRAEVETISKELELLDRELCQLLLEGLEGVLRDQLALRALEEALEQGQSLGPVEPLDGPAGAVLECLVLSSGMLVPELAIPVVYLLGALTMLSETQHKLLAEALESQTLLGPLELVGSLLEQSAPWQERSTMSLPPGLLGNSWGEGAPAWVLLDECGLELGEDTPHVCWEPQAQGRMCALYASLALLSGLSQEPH
# Source text: as §1, §2, §3
# Mass analysis was performed using LCQ DECA XP (Thermoelectron) or Q-TOF micro (Micromass), equipped with an ESI probe. The LC pump used was Agilent 1100 (Yokogawa Analytical Systems), and the autosampler used was HTC-PAL (CTC Analytics) equipped with a cooling stacker. The SEC column used was a micro-LC column or a 384-well spin column. […]
# In the 384-well spin column method, Unifilter 100 (Whatman), packed with 10 μL (dry volume) of Bio-Gel P6 (BIO-RAD) and swollen with milliQ water, was used as the SEC column. […] The SEC spin column was mounted on an acetonitrile-aliquoted 384-well U-bottom plate and centrifuged; the SEC spin column filtrate, which is a protein fraction, was recovered in 50% acetonitrile. The protein precipitate produced by the acetonitrile was removed via centrifugation and filtration for deproteinization; the resulting filtrate was concentrated by centrifugal concentration and re-dissolved in 10 μL of 50% methanol to obtain a mass analysis sample. The mobile phase supplied to the mass analyzer was 0.1% formic acid/50% methanol solution in the positive ion mode, and 0.1% ammonia/50% methanol solution in the negative ion mode; these mobile phases were used at a flow rate of 40 μL/min. 2-μL of mass analysis samples were injected using an autosampler at 2-minute intervals; the mass spectral intensity of the compound was measured to retrieve the spectral intensity of the pharmaceutical compound contained in the SEC spin column filtrate (protein fraction eluted from SEC).
# FLJ41991-derived protein = target: T3, FLJ41991-derived protein (Homo sapiens, UniProt P57764, E293G); experiment: SEC/MS interaction analysis, FLJ41991-derived protein (GSDMDC1); assay type: binding
# T3 construct: His-tag (N); made in house; host or cells: Escherichia coli BL21star(DE3)pLysS (pDEST17)
# T3 sequence (P57764 265-484 E293G): T2 sequence (P57764 265-484) with E29G
# Summary of the method: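 Compound–protein mixtures separated by SEC (micro-LC column with 10 mM ammonium acetate mobile phase, or Bio-Gel P6 spin column) and analysed by ESI mass spectrometry. Interaction inferred from a protein-dependent shift in the compound's mass chromatogram, or from compound signal intensity in the eluted protein fraction.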
# FLJ11211-derived protein = target: T4, FLJ11211-derived protein (Homo sapiens, UniProt Q9Y222, I712M); experiment: SEC/MS interaction analysis, FLJ11211-derived protein (DMTF1; DMP1); assay type: binding; details: spin column method; mixture with protein vs buffer solution alone; data not shown
# T4 construct: corresponds to a partial peptide of human DMP1 on the C-terminal side thereof (303 amino acid residues); His-tag (N); made in house; host or cells: Escherichia coli BL21star(DE3)pLysS
# T4 sequence (Q9Y222 458-760 I712M): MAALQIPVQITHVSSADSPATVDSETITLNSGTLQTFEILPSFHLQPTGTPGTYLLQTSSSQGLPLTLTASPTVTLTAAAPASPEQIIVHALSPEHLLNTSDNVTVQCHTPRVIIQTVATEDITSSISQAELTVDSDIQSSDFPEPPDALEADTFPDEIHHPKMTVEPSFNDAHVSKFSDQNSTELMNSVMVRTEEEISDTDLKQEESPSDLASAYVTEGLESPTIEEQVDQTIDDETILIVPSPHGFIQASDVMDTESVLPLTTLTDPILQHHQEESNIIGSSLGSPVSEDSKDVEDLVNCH
# Source text: as §1, §2, §3, §4, §5
# FLJ22317-derived protein = target: T5, FLJ22317-derived protein (Homo sapiens, UniProt Q9NWV8); experiment: SEC/MS interaction analysis, FLJ22317-derived protein (HSPC142 protein); assay type: binding; details: TSKgel super SW2000 micro-LC column (1.0 mm ID×30 mm); presence vs absence of protein; data not shown
# T5 construct: His-tag (N); made in house; host or cells: Escherichia coli BL21star(DE3)pLysS
# T5 sequence (Q9NWV8 whole entry): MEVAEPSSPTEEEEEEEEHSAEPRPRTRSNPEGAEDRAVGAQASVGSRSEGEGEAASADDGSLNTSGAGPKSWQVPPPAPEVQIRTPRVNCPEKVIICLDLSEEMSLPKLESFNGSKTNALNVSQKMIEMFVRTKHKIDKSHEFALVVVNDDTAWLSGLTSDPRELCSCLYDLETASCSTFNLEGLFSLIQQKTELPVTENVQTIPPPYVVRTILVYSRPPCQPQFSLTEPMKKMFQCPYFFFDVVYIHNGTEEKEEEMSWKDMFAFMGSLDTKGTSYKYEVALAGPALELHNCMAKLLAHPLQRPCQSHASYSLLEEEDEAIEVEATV
# Source text: The specific procedures are shown below.
# FLJ39553-derived protein = target: T6, FLJ39553-derived protein (Homo sapiens, UniProt Q6P6B1, N326S); experiment: SEC/MS interaction analysis, FLJ39553-derived protein (hypothetical protein FLJ39553); assay type: binding; details: TSKgel super SW2000 micro-LC column (1.0 mm ID×30 mm); presence vs absence of protein; data not shown
# T6 construct: His-tag (N); made in house; host or cells: Escherichia coli BL21star(DE3)pLysS
# T6 sequence (Q6P6B1 1-374 N326S): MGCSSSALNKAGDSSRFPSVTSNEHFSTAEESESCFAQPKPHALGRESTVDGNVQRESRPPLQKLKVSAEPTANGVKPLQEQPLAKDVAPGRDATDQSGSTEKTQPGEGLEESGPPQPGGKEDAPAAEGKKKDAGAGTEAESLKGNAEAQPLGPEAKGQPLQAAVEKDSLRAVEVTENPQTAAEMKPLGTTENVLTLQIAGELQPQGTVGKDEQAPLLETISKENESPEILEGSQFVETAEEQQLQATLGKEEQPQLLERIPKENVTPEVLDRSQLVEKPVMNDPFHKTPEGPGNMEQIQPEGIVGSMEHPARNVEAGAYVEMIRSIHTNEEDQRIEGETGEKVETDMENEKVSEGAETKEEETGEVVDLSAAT
# Source text: as §1, §2, §3, §4, §5
# FLJ10537-derived protein = target: T7, FLJ10537-derived protein (Homo sapiens, UniProt Q9NR28); experiment: SEC/MS interaction analysis, FLJ10537-derived protein (DIABLO homolog; SMAC); assay type: binding; details: TSKgel super SW2000 micro-LC column (1.0 mm ID×30 mm); presence vs absence of protein; data not shown
# T7 construct: His-tag (N); made in house; host or cells: Escherichia coli BL21star(DE3)pLysS
# T7 sequence (Q9NR28 1-186 isoform Q9NR28-2): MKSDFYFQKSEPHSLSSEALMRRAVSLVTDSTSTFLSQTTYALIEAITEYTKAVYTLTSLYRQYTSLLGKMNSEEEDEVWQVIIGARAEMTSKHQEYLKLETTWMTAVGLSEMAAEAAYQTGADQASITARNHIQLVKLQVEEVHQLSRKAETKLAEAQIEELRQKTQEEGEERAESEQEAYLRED
# Source text: as §1, §2, §3, §4, §5
compound,measurement,setting,value
"CN(Cc1cnc2nc(N)nc(N)c2n1)c1ccc(C(=O)N[C@@H](CCC(=O)O)C(=O)O)cc1 (racemic) [amethopterin (R, S), amethopterin]",interaction judged from mass chromatogram of the compound (elution from SEC micro-LC column),FLJ25288-derived protein,there was an interaction
same,FLJ No of the derived protein with which the compound was judged to exhibit a concentration-dependent interaction,[1],FLJ25288
CC(C)(C)c1ccc(C(O)CCCN2CCC(C(O)(c3ccccc3)c3ccccc3)CC2)cc1 (stereo not drawn) [terfenadine],interaction judged from mass spectrum peak intensity of the compound in the spin column filtrate,FLJ38897-derived protein,an interaction was observed
same,FLJ No of the derived protein with which the compound was judged to exhibit a concentration-dependent interaction,[1],FLJ11211; also recorded: FLJ38897; also recorded: FLJ41991
same,spectrum intensity of the compound in the SEC spin column filtrate,"FLJ41991-derived protein; compound 12.5 μM, protein 0 μM",26814
same,spectrum intensity of the compound in the SEC spin column filtrate,"FLJ41991-derived protein; compound 12.5 μM, protein 5 μM",200843
same,spectrum intensity of the compound in the SEC spin column filtrate,"FLJ41991-derived protein; compound 12.5 μM, protein 10 μM",376865
same,spectrum intensity of the compound in the SEC spin column filtrate,"FLJ41991-derived protein; compound 12.5 μM, protein 25 μM",1734729
same,spectrum intensity of the compound in the SEC spin column filtrate,"FLJ41991-derived protein; compound 25 μM, protein 0 μM",87636
same,spectrum intensity of the compound in the SEC spin column filtrate,"FLJ41991-derived protein; compound 25 μM, protein 5 μM",311313
same,spectrum intensity of the compound in the SEC spin column filtrate,"FLJ41991-derived protein; compound 25 μM, protein 10 μM",949465
same,spectrum intensity of the compound in the SEC spin column filtrate,"FLJ41991-derived protein; compound 25 μM, protein 25 μM",4190413
same,spectrum intensity of the compound in the SEC spin column filtrate,"FLJ41991-derived protein; compound 62.5 μM, protein 0 μM",231173
same,spectrum intensity of the compound in the SEC spin column filtrate,"FLJ41991-derived protein; compound 62.5 μM, protein 5 μM",1759965
same,spectrum intensity of the compound in the SEC spin column filtrate,"FLJ41991-derived protein; compound 62.5 μM, protein 10 μM",5619658
same,spectrum intensity of the compound in the SEC spin column filtrate,"FLJ41991-derived protein; compound 62.5 μM, protein 25 μM",9678283
same,interaction judged from spectrum intensity of the compound in the SEC spin column filtrate (protein fraction eluted from SEC),"FLJ41991-derived protein; spin column method, doses of both compound and protein varied",concentration-dependent interaction
same,interaction judged from mass spectrum peak intensity of the compound in the spin column filtrate,FLJ11211-derived protein,there was an interaction
solanine α,interaction judged from mass chromatogram of the compound (elution from SEC micro-LC column),FLJ22317-derived protein,there was an interaction
same,FLJ No of the derived protein with which the compound was judged to exhibit a concentration-dependent interaction,[1],FLJ22317; also recorded: FLJ39553
C[C@@H]1[C@H](O)[C@@H](C)/C=C/C=C/C=C/C=C/C=C/C=C/C=C/[C@H](O[C@@H]2O[C@H](C)[C@@H](O)[C@H](N)[C@@H]2O)C[C@@H]2O[C@](O)(C[C@@H](O)C[C@@H](O)[C@H](O)CC[C@@H](O)C[C@@H](O)CC(=O)O[C@H]1C)C[C@H](O)[C@H]2C(=O)O [amphotericin B],interaction judged from mass chromatogram of the compound (elution from SEC micro-LC column),FLJ39553-derived protein,there was an interaction
same,FLJ No of the derived protein with which the compound was judged to exhibit a concentration-dependent interaction,[1],FLJ39553
COc1c2occc2cc2ccc(=O)oc12 [methoxsalen],FLJ No of the derived protein with which the compound was judged to exhibit a concentration-dependent interaction,[1],FLJ10537
same,interaction judged from mass chromatogram of the compound (elution from SEC micro-LC column),FLJ10537-derived protein,there was an interaction
